Experimental findings from patent US10208021B2, “Substituted tetrahydroisoquinoline compounds as factor XIa inhibitors” (BRISTOL-MYERS SQUIBB COMPANY, priority 2011, dated 2019) are described below.

What is called Ki is the dissociation constant of the complex between target and ligand, obtained from inhibition or displacement. A higher Ki goes with weaker binding.

Where a name gives a salt, the structure may show the parent alone. Some results are limits rather than exact numbers.

purified human Factor XIa, sequence (P03951 388-625): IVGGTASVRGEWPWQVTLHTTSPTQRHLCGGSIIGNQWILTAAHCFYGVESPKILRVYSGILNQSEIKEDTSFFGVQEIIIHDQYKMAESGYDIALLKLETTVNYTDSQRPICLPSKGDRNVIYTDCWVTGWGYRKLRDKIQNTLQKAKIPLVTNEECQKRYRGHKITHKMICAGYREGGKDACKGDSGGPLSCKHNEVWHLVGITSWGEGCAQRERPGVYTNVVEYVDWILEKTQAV
purified human Factor XIa, sequence (P03951 19-387 partner): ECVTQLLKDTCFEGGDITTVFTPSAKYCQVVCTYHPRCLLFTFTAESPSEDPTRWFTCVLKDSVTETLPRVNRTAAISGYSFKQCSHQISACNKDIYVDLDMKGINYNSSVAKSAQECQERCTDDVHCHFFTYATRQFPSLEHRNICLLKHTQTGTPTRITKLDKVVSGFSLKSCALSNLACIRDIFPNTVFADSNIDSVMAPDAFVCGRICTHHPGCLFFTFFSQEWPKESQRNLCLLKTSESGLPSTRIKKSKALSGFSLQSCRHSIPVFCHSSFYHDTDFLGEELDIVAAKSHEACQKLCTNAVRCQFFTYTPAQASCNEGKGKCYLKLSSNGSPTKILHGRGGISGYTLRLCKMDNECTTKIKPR

The first assay deals with purified human Factor XIa (Homo sapiens (Human), UniProt P03951). Briefly: Factor XIa chromogenic substrate (S-2366) inhibition assay. In kind it is biochemical. As to conditions: substrate S-2366, Table 1. In a few lines:
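Ki derived from reaction velocities measured in the presence of inhibitor. Purified protease hydrolysed the chromogenic substrate; rate of absorbance change was followed over 20-180 minutes, depending on the protease.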
With `O=C(Nc1ccc(F)cc1)C1c2cccc(N3CCC(N4CCCC4)CC3)c2CCN1C(=O)C=Cc1c(-n2cnnn2)ccc(Cl)c1F` (stereo not drawn) [Example 90], the affinity, expressed as Ki, was 314 nM.

On to `CCOC(=O)c1ccc(NC(=O)C2c3cccc(N4CCC(N5CCCC5)CC4)c3CCN2C(=O)C=Cc2c(-n3cnnn3)ccc(Cl)c2F)cc1` (stereo not drawn) [Example 94], for which the Ki was under 5 nM.

As for `COC(=O)Nc1ccc(NC(=O)C2c3cccc(N4CCC(N5CCCC5)CC4)c3CCN2C(=O)C=Cc2c(-n3cnnn3)ccc(Cl)c2F)cc1` (stereo not drawn) [Example 98], the Ki worked out at 632 nM.

Regarding `O=C(O)c1ccc(NC(=O)C2c3cccc(N4CCC(N5CCCC5=O)CC4)c3CCN2C(=O)C=Cc2c(-n3cnnn3)ccc(Cl)c2F)cc1` (stereo not drawn) [Example 119], the Ki was under 5 nM.

`CCOC(=O)c1ccc(NC(=O)C2c3cccc(N4CCC(N5CCCC5=O)CC4)c3CCN2C(=O)C=Cc2c(-n3cnnn3)ccc(Cl)c2F)cc1` (stereo not drawn) [Example 125] returned a Ki of 1010 nM.

With `CCOC(=O)c1ccc(NC(=O)[C@H]2c3cccc(N4CCC(N(C)C)CC4)c3CCN2C(=O)/C=C/c2c(-n3cnnn3)ccc(Cl)c2F)cc1` [Example 128], the inhibitory constant (Ki) was 133 nM.

`CCOC(=O)c1ccc(NC(=O)C2c3cccc(N4CCC(N5CCCC5)CC4)c3CCN2C(=O)C=Cc2c(C(C)=O)ccc(Cl)c2F)cc1` (stereo not drawn) [Example 169]: the affinity corresponds to a Ki of 517 nM.

Still in this assay, the particulars now being: substrate S-2366, activity ranges, Table A.
With `NC(=O)c1ccc(NC(=O)C2c3cccc(N4CCNCC4)c3CCN2C(=O)/C=C/c2cc(Cl)c(F)cc2-n2cnnn2)cc1` (stereo not drawn) [Example 66, (E)-N-(4-carbamoylphenyl)-2-(3-(5-chloro-4-fluoro-2-(1H-tetrazol-1-yl)phenyl)acryloyl)-5-(piperazin-1-yl)-1,2,3,4-tetrahydroisoquinoline-1-carboxamide, bis-TFA Salt], the inhibition constant (Ki) lay within 5 to 10 nM.

`CC1(C)Cc2c(cccc2N2CCNCC2)C(C(=O)Nc2ccc(C(=O)O)cc2)N1C(=O)/C=C/c1c(-n2cnnn2)ccc(Cl)c1F` (stereo not drawn) [Example 78, (E)-4-(2-(3-(3-chloro-2-fluoro-6-(1H-tetrazol-1-yl)phenyl)acryloyl)-3,3-dimethyl-5-(piperazin-1-yl)-1,2,3,4-tetrahydroisoquinoline-1-carboxamido)benzoic acid, bis-TFA Salt] had a Ki of under 5 nM.

Regarding `CC(=O)c1ccc(Cl)c(F)c1/C=C/C(=O)N1CCc2c(cccc2N2CCN(C)CC2)C1C(=O)Nc1ccc(C(=O)O)cc1` (stereo not drawn) [Example 79, (E)-4-(2-(3-(6-acetyl-3-chloro-2-fluorophenyl)acryloyl)-5-(4-methylpiperazin-1-yl)-1,2,3,4-tetrahydroisoquinoline-1-carboxamido)benzoic acid, bis-TFA Salt], the Ki was under 5 nM.

Consider `O=C(O)c1ccc(NC(=O)C2c3cccc(N4CCC(N5CCCC5)CC4)c3CCN2C(=O)/C=C/c2c(-n3cnnn3)ccc(Cl)c2F)cc1` (stereo not drawn) [Example 80, (E)-4-(2-(3-(3-Chloro-2-fluoro-6-(1H-tetrazol-1-yl)phenyl)acryloyl)-5-(4-(pyrrolidin-1-yl)piperidin-1-yl)-1,2,3,4-tetrahydroisoquinoline-1-carboxamido)benzoic acid, bis TFA Salt], for which the inhibitory constant (Ki) is under 5 nM.

As to `O=C(Nc1ccc(F)cc1)C1c2cccc(N3CCC(N4CCCC4)CC3)c2CCN1C(=O)C=Cc1c(-n2cnnn2)ccc(Cl)c1F` (stereo not drawn) [Example 86], the Ki was under 5 nM.

With `O=C(O)c1ccc(NC(=O)C2c3cccc(N4CCC(N5CCCC5)CC4)c3CCN2C(=O)C=Cc2c(-n3cnnn3)ccc(Cl)c2F)cc1` (stereo not drawn) [Example 87], the Ki was under 5 nM.

Compound `O=C(O)c1ccc(NC(=O)C2c3cccc(N4CCC(N5CCCC5)CC4)c3CCN2C(=O)C=Cc2c(-n3cnnn3)ccc(Cl)c2F)cc1` (stereo not drawn) [Example 88] showed a Ki of 5 to 10 nM.

In turn, `CCOC(=O)c1ccc(NC(=O)C2c3cccc(N4CCC(N5CCCC5)CC4)c3CCN2C(=O)C=Cc2c(-n3cnnn3)ccc(Cl)c2F)cc1` (stereo not drawn) [Example 93] displayed a Ki of 5 to 10 nM.

As to `COC(=O)Nc1ccc(NC(=O)C2c3cccc(N4CCC(N5CCCC5)CC4)c3CCN2C(=O)C=Cc2c(-n3cnnn3)ccc(Cl)c2F)cc1` (stereo not drawn) [Example 99], the Ki is under 5 nM.

For the compound `CN(C)C(=O)C1CCN(c2cccc3c2CCN(C(=O)C=Cc2c(-n4cnnn4)ccc(Cl)c2F)C3C(=O)Nc2ccc(C(=O)O)cc2)CC1` (stereo not drawn) [Example 101], the Ki was under 5 nM.

In turn, `CCOC(=O)c1ccc(NC(=O)C2c3cccc(N4CCC5(CCN(C)C5=O)CC4)c3CCN2C(=O)C=Cc2c(-n3cnnn3)ccc(Cl)c2F)cc1` (stereo not drawn) [Example 110] registered an inhibition constant Ki of 5 to 10 nM.

`O=C(Nc1ccc(Cl)cc1)C1c2cccc(N3CCC(N4CCCC4)CC3)c2CCN1C(=O)C=Cc1c(-n2cnnn2)ccc(Cl)c1F` (stereo not drawn) [Example 111] returned a Ki of 500 to 5000 nM.

For the compound `O=C(Nc1ccc(Cl)cc1)C1c2cccc(N3CCC(N4CCCC4)CC3)c2CCN1C(=O)C=Cc1c(-n2cnnn2)ccc(Cl)c1F` (stereo not drawn) [Example 112], the Ki was under 5 nM.

`CCCCOC(=O)c1ccc(NC(=O)C2c3cccc(N4CCC(N5CCCC5)CC4)c3CCN2C(=O)C=Cc2c(-n3cnnn3)ccc(Cl)c2F)cc1` (stereo not drawn) [Example 113] had a Ki of 100 to 500 nM.

The compound `CCCCOC(=O)c1ccc(NC(=O)C2c3cccc(N4CCC(N5CCCC5)CC4)c3CCN2C(=O)C=Cc2c(-n3cnnn3)ccc(Cl)c2F)cc1` (stereo not drawn) [Example 114] displayed a Ki of under 5 nM.

Regarding `O=C(O)c1ccc(NC(=O)C2c3cccc(N4CCC(N5CCCC5=O)CC4)c3CCN2C(=O)C=Cc2c(-n3cnnn3)ccc(Cl)c2F)cc1` (stereo not drawn) [Example 118], the Ki fell in the range of 5 to 10 nM.

Compound `CCOC(=O)c1ccc(NC(=O)[C@@H]2c3cccc(N4CCC(N(C)C)CC4)c3CCN2C(=O)/C=C/c2c(-n3cnnn3)ccc(Cl)c2F)cc1` [Example 129] had an inhibition constant Ki of under 5 nM.

`O=C(O)c1ccc(NC(=O)[C@H]2c3cccc(N4CCC(C(=O)N5CCCC5)CC4)c3CCN2C(=O)/C=C/c2c(-n3cnnn3)ccc(Cl)c2F)cc1` [Example 132]: the Ki was in the range of 100 to 500 nM.

`O=C(O)c1ccc(NC(=O)[C@@H]2c3cccc(N4CCC(C(=O)N5CCCC5)CC4)c3CCN2C(=O)/C=C/c2c(-n3cnnn3)ccc(Cl)c2F)cc1` [Example 133] registered a Ki of under 5 nM.

In the case of `CCOC(=O)c1ccc(NC(=O)[C@@H]2c3cccc(N4CCC(C(=O)N5CCCC5)CC4)c3CCN2C(=O)/C=C/c2c(-n3cnnn3)ccc(Cl)c2F)cc1` [Example 135], the Ki was under 5 nM.

On to `O=C(O)c1ccc(NC(=O)[C@@H]2c3cccc(N4CCC(N5CCOCC5)CC4)c3CCN2C(=O)/C=C/c2c(-n3cnnn3)ccc(Cl)c2F)cc1` [Example 139], for which the Ki was under 5 nM.

As for `O=C(O)c1ccc(NC(=O)[C@@H]2c3cccc(N4CCC(C(=O)N5CCOCC5)CC4)c3CCN2C(=O)/C=C/c2c(-n3cnnn3)ccc(Cl)c2F)cc1` [Example 141], the Ki is under 5 nM.

For the compound `O=C(O)c1ccc(NC(=O)[C@@H]2c3cccc(N4CCC5(CC4)OCCO5)c3CCN2C(=O)/C=C/c2c(-n3cnnn3)ccc(Cl)c2F)cc1` [Example 143], the Ki was under 5 nM.

As to `COC(=O)c1ccc(NC(=O)[C@@H]2c3cccc(N4CCC5(CC4)OCCO5)c3CCN2C(=O)/C=C/c2c(-n3cnnn3)ccc(Cl)c2F)cc1` [Example 144], the Ki is under 5 nM.

As for `O=C(O)c1ccc(NC(=O)[C@@H]2c3cccc(N4CCC(O)CC4)c3CCN2C(=O)/C=C/c2c(-n3cnnn3)ccc(Cl)c2F)cc1` [Example 149], the inhibitory constant (Ki) was under 5 nM.

The compound `COC1CCN(c2cccc3c2CCN(C(=O)/C=C/c2c(-n4cnnn4)ccc(Cl)c2F)[C@@H]3C(=O)Nc2ccc(C(=O)O)cc2)CC1` [Example 151] showed a Ki of under 5 nM.

`N#Cc1ccc(Cl)c(F)c1C=CC(=O)N1CCc2c(cccc2N2CCC(N3CCCC3)CC2)C1C(=O)Nc1ccc(C(=O)O)cc1` (stereo not drawn) [Example 163]: the Ki was 5 to 10 nM.

As for `N#Cc1ccc(Cl)c(F)c1C=CC(=O)N1CCc2c(cccc2N2CCC(N3CCCC3)CC2)C1C(=O)Nc1ccc(C(=O)O)cc1` (stereo not drawn) [Example 164], the Ki is under 5 nM.

In turn, `CCOC(=O)c1ccc(NC(=O)C2c3cccc(N4CCC(N5CCCC5)CC4)c3CCN2C(=O)C=Cc2c(C#N)ccc(Cl)c2F)cc1` (stereo not drawn) [Example 166] showed a Ki of 5 to 10 nM.

The compound `CC(=O)c1ccc(Cl)c(F)c1C=CC(=O)N1CCc2c(cccc2N2CCC(N3CCCC3)CC2)C1C(=O)Nc1ccc(C(=O)O)cc1` (stereo not drawn) [Example 167] had a Ki of 5 to 10 nM.

The compound `CC(=O)c1ccc(Cl)c(F)c1C=CC(=O)N1CCc2c(cccc2N2CCC(N3CCCC3)CC2)C1C(=O)Nc1ccc(C(=O)O)cc1` (stereo not drawn) [Example 168] had a Ki of under 5 nM.

In turn, `CCOC(=O)c1ccc(NC(=O)C2c3cccc(N4CCC(N5CCCC5)CC4)c3CCN2C(=O)C=Cc2c(C(C)=O)ccc(Cl)c2F)cc1` (stereo not drawn) [Example 170] had a Ki of under 5 nM.

In turn, `CC(=O)c1ccc(Cl)c(F)c1C=CC(=O)N1CCc2c(cccc2N2CCC(N3CCCC3)CC2)C1C(=O)Nc1ccc(C(=O)OCc2ccccc2)cc1` (stereo not drawn) [Example 171] gave a Ki of 5 to 10 nM.

As to `CC(=O)c1ccc(Cl)c(F)c1C=CC(=O)N1CCc2c(cccc2N2CCC(N3CCCC3)CC2)C1C(=O)Nc1ccc(C(=O)OCC(=O)N(C)C)cc1` (stereo not drawn) [Example 172], the Ki is under 5 nM.

In turn, `CC(=O)c1ccc(Cl)c(F)c1C=CC(=O)N1CCc2c(cccc2N2CCC(N3CCCC3)CC2)C1C(=O)Nc1ccc(C(=O)OCCn2cncn2)cc1` (stereo not drawn) [Example 173] yielded a Ki of 5 to 10 nM.

As for `COCCOC(=O)c1ccc(NC(=O)C2c3cccc(N4CCC(N5CCCC5)CC4)c3CCN2C(=O)C=Cc2c(C(C)=O)ccc(Cl)c2F)cc1` (stereo not drawn) [Example 174], the Ki is under 5 nM.

Turning to `CCOC(=O)c1ccc(NC(=O)C2c3cccc(N4CCC(N5CCCC5)CC4)c3CCN2C(=O)C=Cc2c(C(F)(F)F)ccc(Cl)c2F)cc1` (stereo not drawn) [Example 177], the Ki was in the range of 5 to 10 nM.

As for `O=C(O)c1ccc(NC(=O)C2c3cccc(N4CCC(N5CCCC5)CC4)c3CCN2C(=O)C=Cc2c(C(F)(F)F)ccc(Cl)c2F)cc1` (stereo not drawn) [Example 178], the Ki is under 5 nM.

Compound `O=C(O)c1ccc(NC(=O)C2c3cccc(N4CCC(N5CCCC5)CC4)c3CCN2C(=O)C=Cc2c(C(F)(F)F)ccc(Cl)c2F)cc1` (stereo not drawn) [Example 179] registered a Ki of 100 to 500 nM.

Take `CCOC(=O)c1ccc(NC(=O)C2c3cccc(N4CCOCC4)c3CCN2C(=O)C=Cc2c(-n3cnnn3)ccc(Cl)c2F)cc1` (stereo not drawn) [Example 185]: the Ki was in the range of 5 to 10 nM.

For the compound `CCOC(=O)c1ccc(NC(=O)C2c3cccc(N4CCOCC4)c3CCN2C(=O)C=Cc2c(-n3cnnn3)ccc(Cl)c2F)cc1` (stereo not drawn) [Example 186], the Ki is 500 to 5000 nM.
